Laboratory results from US10681909B2, “Herbicidal triazoles” (FMC Corporation, priority 2014, dated 2020).

Columns and labels:
bromegrass, down = experiment: Test D postemergence; format: in vivo, Bromus tectorum; conditions: scale 0 to 100
Outline: (§1)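 Seeds were sown in silt loam and sprayed preemergence with test chemicals in a non-phytotoxic solvent mixture containing surfactant. For postemergence tests, plants grown in peat-based medium to 2 to 18 cm (1- to 4-leaf stage) were sprayed with the same formulation. Injury was rated visually against untreated controls after 14 to 21 d in a controlled growth environment.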

lambsquarters = experiment: Test D preemergence; format: in vivo, Chenopodium album; conditions: for Plant response rating: Lambsquarters: scale 0 to 100
Outline: as §1

Russian thistle = experiment: Test D postemergence; format: in vivo, Salsola kali; conditions: scale 0 to 100
From the text: Seeds of plant species selected from bluegrass (annual bluegrass, Poa annua), blackgrass (Alopecurus myosuroides), canarygrass (Phalaris minor), chickweed (common chickweed, Stellaria media), galium (catchweed bedstraw, Galium aparine), bromegrass, down (downy bromegrass, Bromus tectorum), Russian thistle (Salsola kali), field poppy (Papaver rhoeas), field violet (Viola arvensis), foxtail, green (green foxtail, Setaria viridis), deadnettle (henbit deadnettle, Lamium amplexicaule), ryegrass, Ital. (Italian ryegrass, Lolium multiflorum), kochia (Kochia scoparia), lambsquarters (Chenopodium album), oilseed rape (Brassica napus), pigweed (Amaranthus retroflexus), chamomile (scentless chamomile, Matricaria inodora), speedwell (bird's-eye speedwell, Veronica persica), barley, spring (spring barley, Hordeum vulgare), wheat, spring (spring wheat, Triticum aestivum), buckwheat, wild (wild buckwheat, Polygonum convolvulus), wild mustard (Sinapis arvensis), oat, wild (wild oat, Avena fatua), radish, wild (wild radish, Raphanus raphanistrum), […]), barley, winter (winter barley, Hordeum vulgare), and wheat, winter (winter wheat, Triticum aestivum) were planted into a silt loam soil and treated preemergence with test chemicals formulated in a non-phytotoxic solvent mixture which included a surfactant. At the same time, these species were planted in pots containing Sunshine Redi-Earth® planting medium comprising spaghnum peat moss, vermiculite, starter nutrients and dolomitic limestone and treated with postemergence applications of the test chemicals formulated in the same manner. Plants ranged in height from 2 to 18 cm (1- to 4-leaf stage). Treated plants and controls were maintained in a controlled growth environment for 14 to 21 d after which time all species were compared to controls and visually evaluated. […] A dash (-) response means no test result.

kochia [1] = experiment: Test D preemergence; format: in vivo, Kochia scoparia; conditions: for Plant response rating: Kochia: scale 0 to 100
Outline: as §1

blackgrass = experiment: Test A postemergence; format: in vivo, Alopecurus myosuroides; conditions: 0 to 100 scale (0 no effect, 100 complete control), approx. 10 d
Outline: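 Visual 0–100 ratings (0 no effect, 100 complete control) made roughly 10 days after treatment, comparing greenhouse-grown plants to untreated controls. Formulated test chemicals, with surfactant, went either as directed soil spray at planting or onto 2–10 cm seedlings bearing one to two leaves.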

windgrass [2] = experiment: Test D postemergence; format: in vivo, Apera spica-venti; conditions: scale 0 to 100
Outline: as §1

speedwell = experiment: Test D preemergence; format: in vivo, Veronica persica; conditions: for Plant response rating: Speedwell: scale 0 to 100
Outline: as §1

waterhemp = experiment: Test C preemergence; format: in vivo, Amaranthus rudis; conditions: for Waterhemp plant response rating (0 to 100): Preemergence, visual rating after 13 to 15 d
Outline: (§2)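 Preemergence: seeds sown in loam soil–sand blend and treated with test chemicals formulated in a non-phytotoxic solvent mixture containing a surfactant. Postemergence: plants grown in peat moss/vermiculite-based medium and sprayed with the same formulation at 2 to 18 cm height (1- to 4-leaf stage).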

windgrass [3] = experiment: Test D preemergence; format: in vivo, Apera spica-venti; conditions: for Plant response rating: Windgrass: scale 0 to 100
Outline: as §1

pigweed [4] = experiment: Test C preemergence; format: in vivo, Amaranthus retroflexus; conditions: for Plant response rating (scale of 0 to 100 where 0 is no effect and 100 is complete control): Pigweed, preemergence; for Pigweed plant response rating (0 to 100): Preemergence, visual rating after 13 to 15 d
Outline: as §2

kochia [5] = experiment: Test D postemergence; format: in vivo, Kochia scoparia; conditions: scale 0 to 100
Outline: as §1

oat, wild = experiment: Test D preemergence; format: in vivo, Avena fatua; conditions: for Plant response rating: Oat, Wild: scale 0 to 100
Outline: as §1

field violet = experiment: Test D preemergence; format: in vivo, Viola arvensis; conditions: for Plant response rating: Field Violet: scale 0 to 100
Outline: as §1

pigweed [6] = experiment: Test D preemergence; format: in vivo, Amaranthus retroflexus; conditions: for Plant response rating: Pigweed: scale 0 to 100
Outline: as §1

[7] = 16 g ai/ha, 0 is no effect, 100 is complete control

FC(F)(F)COc1nc(-c2ccccc2)nn1Cc1ccnc(C(F)(F)F)c1 [Compound 24]
Plant response rating: Bromegrass, Down (bromegrass, down; 16 g ai/ha): 25
Plant response rating: Bromegrass, Down (bromegrass, down; 31 g ai/ha): 40
Plant response rating: Bromegrass, Down (bromegrass, down; 62 g ai/ha): 45
Plant response rating: Bromegrass, Down (bromegrass, down; 125 g ai/ha): 50
Plant response rating (0 to 100), Lambsquarters (lambsquarters; [7]): 65
Plant response rating: Lambsquarters (lambsquarters; 62 g ai/ha): 80
Plant response rating: Lambsquarters (lambsquarters; 125 g ai/ha): 85
Plant response rating: Russian Thistle (Russian thistle; 16 g ai/ha): 65
Plant response rating: Russian Thistle (Russian thistle; 31 g ai/ha): 75
Plant response rating: Russian Thistle (Russian thistle; 62 g ai/ha): 85
Plant response rating: Russian Thistle (Russian thistle; 125 g ai/ha): 85
Plant response rating (0 to 100), Kochia (kochia [1]; [7]): 85
Plant response rating: Kochia (kochia [1]; 62 g ai/ha): 90
Plant response rating: Kochia (kochia [1]; 125 g ai/ha): 90
Plant response rating, Blackgrass (blackgrass; 125 g ai/ha): 40
Plant response rating, Blackgrass (blackgrass; 500 g ai/ha): 60
Plant response rating: Windgrass (windgrass [2]; 16 g ai/ha): 20
Plant response rating: Windgrass (windgrass [2]; 31 g ai/ha): 35
Plant response rating: Windgrass (windgrass [2]; 62 g ai/ha): 45
Plant response rating: Windgrass (windgrass [2]; 125 g ai/ha): 60
Plant response rating (0 to 100), Speedwell (speedwell; [7]): 80
Plant response rating: Speedwell (speedwell; 62 g ai/ha): 100
Plant response rating: Speedwell (speedwell; 125 g ai/ha): 100
Waterhemp plant response rating (0 to 100) (waterhemp; 31 g ai/ha): 100
Waterhemp plant response rating (0 to 100) (waterhemp; 62 g ai/ha): 100
Plant response rating (scale of 0 to 100 where 0 is no effect and 100 is complete control) (waterhemp; Waterhemp, preemergence, 250 g ai/ha): 100
Plant response rating (0 to 100), Windgrass (windgrass [3]; [7]): 0
Plant response rating: Windgrass (windgrass [3]; 62 g ai/ha): 65
Plant response rating: Windgrass (windgrass [3]; 125 g ai/ha): 100
Plant response rating (scale of 0 to 100 where 0 is no effect and 100 is complete control) (pigweed [4]; 125 g ai/ha): 100
Plant response rating (scale of 0 to 100 where 0 is no effect and 100 is complete control) (pigweed [4]; 250 g ai/ha): 100
Pigweed plant response rating (0 to 100) (pigweed [4]; 31 g ai/ha): 100
Pigweed plant response rating (0 to 100) (pigweed [4]; 62 g ai/ha): 100
Plant response rating: Kochia (kochia [5]; 16 g ai/ha): 85
Plant response rating: Kochia (kochia [5]; 31 g ai/ha): 90
Plant response rating: Kochia (kochia [5]; 62 g ai/ha): 90
Plant response rating: Kochia (kochia [5]; 125 g ai/ha): 90
Plant response rating (0 to 100), Oat, Wild (oat, wild; [7]): 30
Plant response rating: Oat, Wild (oat, wild; 62 g ai/ha): 30
Plant response rating: Oat, Wild (oat, wild; 125 g ai/ha): 35
Plant response rating (0 to 100), Field Violet (field violet; [7]): 0
Plant response rating: Field Violet (field violet; 62 g ai/ha): 80
Plant response rating: Field Violet (field violet; 125 g ai/ha): 100
Plant response rating (0 to 100), Pigweed (pigweed [6]; [7]): 95
Plant response rating: Pigweed (pigweed [6]; 62 g ai/ha): 100
Plant response rating: Pigweed (pigweed [6]; 125 g ai/ha): 100
